Blank lines part the entries; values can stand above or below the compound they belong to. Activity calls are given as the source filed them.
Tests used:
[1] = cells; type: functional, cell-based
[2] = molecular target: T1, Nuclear receptor subfamily 0 group B member 1 (Homo sapiens, UniProt P51843); type: functional, cell-based;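 further: HEK293T cells transfected with SF-1 and DAX-1 plus StAR promoter luciferase reporter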
T1 sequence (P51843 whole entry): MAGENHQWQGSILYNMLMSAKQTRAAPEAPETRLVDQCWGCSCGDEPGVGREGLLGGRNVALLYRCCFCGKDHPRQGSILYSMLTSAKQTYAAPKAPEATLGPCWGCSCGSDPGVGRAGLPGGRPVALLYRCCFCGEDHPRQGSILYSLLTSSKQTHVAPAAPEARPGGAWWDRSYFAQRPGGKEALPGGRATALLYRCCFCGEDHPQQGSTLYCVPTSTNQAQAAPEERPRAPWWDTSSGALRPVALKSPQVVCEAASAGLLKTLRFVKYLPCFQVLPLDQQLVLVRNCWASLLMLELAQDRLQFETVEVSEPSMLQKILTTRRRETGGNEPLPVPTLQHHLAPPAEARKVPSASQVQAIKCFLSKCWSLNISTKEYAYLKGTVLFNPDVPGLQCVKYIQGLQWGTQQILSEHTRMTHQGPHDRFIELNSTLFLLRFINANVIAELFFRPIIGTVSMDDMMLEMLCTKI

[3] = molecular target: Ras and Rab interactor 1/Tyrosine-protein kinase ABL1 (Homo sapiens, UniProt P00519+Q13671); type: functional;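 further: biochemical TR-FRET dose-response test measuring inhibition of binding between Rin1 and Abl proteins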
[4] = molecular target: T2, COUP transcription factor 2 (Homo sapiens, UniProt P24468); experiment: Luminescence-based cell-based high throughput dose response assay to identify inhibitors of COUP-TFII (NR2F2).; type: functional;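 further: HEK293 cells transiently cotransfected with COUP-TFII expression vector and reporter; luciferase reporter luminescence driven by COUP-TFII from the pX2-168 reporter plasmid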
T2 sequence (P24468 whole entry): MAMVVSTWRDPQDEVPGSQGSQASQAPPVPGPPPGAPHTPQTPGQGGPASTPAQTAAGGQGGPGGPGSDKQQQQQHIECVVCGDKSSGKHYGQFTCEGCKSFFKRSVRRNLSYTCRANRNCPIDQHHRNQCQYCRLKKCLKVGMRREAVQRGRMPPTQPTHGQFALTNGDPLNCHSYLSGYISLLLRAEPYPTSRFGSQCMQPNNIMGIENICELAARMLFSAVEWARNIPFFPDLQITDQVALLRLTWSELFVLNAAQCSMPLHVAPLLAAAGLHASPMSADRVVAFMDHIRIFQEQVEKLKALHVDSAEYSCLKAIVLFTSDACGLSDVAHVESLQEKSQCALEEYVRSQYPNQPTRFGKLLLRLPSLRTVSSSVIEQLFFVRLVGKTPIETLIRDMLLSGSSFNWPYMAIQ

[5] = molecular target: Steroidogenic factor 1 (Homo sapiens, UniProt Q13285); experiment: Counterscreen for inverse agonists of the liver receptor homolog-1 (LRH-1; NR5A2): Luminescence-based cell-based high throughput dose response assay to identify inverse agonists of the Steroidogenic Factor 1 Nuclear Receptor (SF1; NR5A1).; type: functional
[6] = molecular target: Melanocortin receptor 4 (Homo sapiens, UniProt P32245); type: functional, cell-based;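 further: Cell-based assay with luminescence read-out, confirmatory dose-response testing for agonist activity of biased ligands at MC4R; human U2OS cells with tagged receptor and beta-arrestin; potency of agonists that increase receptor coupling to beta-arrestin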
[7] = molecular target: Nuclear receptor subfamily 5 group A member 2 (Homo sapiens, UniProt O00482); type: functional, cell-based;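 further: HEK293T cells transfected with LRH-1 and a StAR promoter luciferase reporter; potency for inhibitors that lower LRH-1 driven reporter light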
[8] = nonselective StAR promoter luciferase inhibitors – cell-based, luminescence, luciferase reporter, counter-screen for LRH-1 inverse agonist project, dose response (AID 651969); type: functional
[9] = molecular target: T3, Small ubiquitin-related modifier 2 (Homo sapiens, UniProt P61956); experiment: disruption of SUMO2 interaction with SIM peptide – biochemical, fluorescence polarization, uHTS hits, selectivity assay for SUMO1 interaction inhibitor project, dose response (AID 624385); type: functional; details: read-out: IC50_Mean
[10] = molecular target: T4, Small ubiquitin-related modifier 1 (Homo sapiens, UniProt P63165); experiment: SUMO1 protein-protein binding blockers, potency – biochemical, FRET, dose response (AID 624383); type: functional; details: read-out: IC50_Mean
[11] = molecular target: T3, Small ubiquitin-related modifier 2; experiment: SUMO2 binding disruption by SUMO1 hits – biochemical, FRET, human SUMO2, uHTS hits, selectivity assay for SUMO1 interaction inhibitor project, dose response (AID 624384); type: functional; details: read-out: IC50_Mean
[12] = molecular target: T4, Small ubiquitin-related modifier 1; experiment: SUMO1 protein interaction blockers, potency – biochemical, fluorescence polarization, uHTS hits, dose response (AID 624382); type: functional; details: read-out: IC50_Mean

T3 sequence (P61956 whole entry): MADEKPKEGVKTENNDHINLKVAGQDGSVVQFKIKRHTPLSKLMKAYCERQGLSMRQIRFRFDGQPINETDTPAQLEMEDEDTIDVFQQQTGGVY
Chain of Ras and Rab interactor 1/Tyrosine-protein kinase ABL1 (P00519 whole entry): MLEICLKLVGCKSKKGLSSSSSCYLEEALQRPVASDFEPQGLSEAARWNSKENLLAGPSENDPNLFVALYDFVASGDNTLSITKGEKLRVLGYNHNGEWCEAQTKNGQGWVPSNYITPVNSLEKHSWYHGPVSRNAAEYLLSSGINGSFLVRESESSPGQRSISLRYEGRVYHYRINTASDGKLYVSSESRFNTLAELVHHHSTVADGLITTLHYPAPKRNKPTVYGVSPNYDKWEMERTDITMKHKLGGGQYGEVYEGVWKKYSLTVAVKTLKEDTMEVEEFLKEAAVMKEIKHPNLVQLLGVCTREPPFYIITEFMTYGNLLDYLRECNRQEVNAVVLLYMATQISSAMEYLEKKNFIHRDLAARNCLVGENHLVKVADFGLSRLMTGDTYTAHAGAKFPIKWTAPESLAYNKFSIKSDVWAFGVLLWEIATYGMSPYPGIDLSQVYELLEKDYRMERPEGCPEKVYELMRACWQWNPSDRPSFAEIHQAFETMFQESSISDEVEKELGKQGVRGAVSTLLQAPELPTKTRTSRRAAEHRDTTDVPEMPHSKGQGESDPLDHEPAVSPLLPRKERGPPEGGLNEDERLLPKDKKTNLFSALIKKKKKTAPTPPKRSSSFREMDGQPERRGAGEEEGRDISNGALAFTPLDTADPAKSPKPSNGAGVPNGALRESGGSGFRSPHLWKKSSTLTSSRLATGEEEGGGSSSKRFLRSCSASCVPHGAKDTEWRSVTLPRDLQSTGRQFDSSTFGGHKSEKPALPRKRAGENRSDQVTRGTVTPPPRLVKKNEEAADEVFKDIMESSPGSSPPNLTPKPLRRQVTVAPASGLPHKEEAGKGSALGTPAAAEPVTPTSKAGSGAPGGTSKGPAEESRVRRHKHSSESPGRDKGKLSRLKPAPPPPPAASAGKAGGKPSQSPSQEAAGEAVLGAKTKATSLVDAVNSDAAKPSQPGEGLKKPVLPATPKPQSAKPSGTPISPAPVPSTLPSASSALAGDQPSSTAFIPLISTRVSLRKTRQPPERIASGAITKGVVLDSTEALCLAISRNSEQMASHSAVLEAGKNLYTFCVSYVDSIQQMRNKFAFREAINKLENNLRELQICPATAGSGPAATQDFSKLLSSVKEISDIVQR
Chain of Ras and Rab interactor 1/Tyrosine-protein kinase ABL1 (Q13671 whole entry): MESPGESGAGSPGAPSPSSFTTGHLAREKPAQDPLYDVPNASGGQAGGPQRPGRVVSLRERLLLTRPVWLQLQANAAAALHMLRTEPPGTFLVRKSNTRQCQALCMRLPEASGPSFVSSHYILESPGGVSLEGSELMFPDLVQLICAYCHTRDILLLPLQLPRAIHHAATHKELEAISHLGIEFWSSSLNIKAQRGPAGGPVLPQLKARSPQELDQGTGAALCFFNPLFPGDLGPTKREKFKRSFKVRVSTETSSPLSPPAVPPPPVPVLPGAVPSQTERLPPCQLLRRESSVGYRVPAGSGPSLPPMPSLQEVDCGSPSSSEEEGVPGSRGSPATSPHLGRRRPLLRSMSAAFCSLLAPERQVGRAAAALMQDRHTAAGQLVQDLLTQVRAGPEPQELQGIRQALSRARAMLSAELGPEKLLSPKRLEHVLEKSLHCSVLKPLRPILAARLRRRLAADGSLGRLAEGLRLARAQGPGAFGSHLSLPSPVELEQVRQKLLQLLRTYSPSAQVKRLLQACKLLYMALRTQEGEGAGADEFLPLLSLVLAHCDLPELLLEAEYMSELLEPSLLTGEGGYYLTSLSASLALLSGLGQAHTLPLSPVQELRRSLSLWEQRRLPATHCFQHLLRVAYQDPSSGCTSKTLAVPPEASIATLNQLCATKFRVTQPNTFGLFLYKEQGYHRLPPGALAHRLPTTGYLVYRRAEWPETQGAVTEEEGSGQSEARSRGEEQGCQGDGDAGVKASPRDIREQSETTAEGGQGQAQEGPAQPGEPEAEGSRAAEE
T4 sequence (P63165 whole entry): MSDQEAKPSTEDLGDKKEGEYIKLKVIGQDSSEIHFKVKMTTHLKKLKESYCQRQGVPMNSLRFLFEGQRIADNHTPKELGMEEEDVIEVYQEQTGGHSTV
Chain of Melanocortin receptor 4 (P32245 whole entry): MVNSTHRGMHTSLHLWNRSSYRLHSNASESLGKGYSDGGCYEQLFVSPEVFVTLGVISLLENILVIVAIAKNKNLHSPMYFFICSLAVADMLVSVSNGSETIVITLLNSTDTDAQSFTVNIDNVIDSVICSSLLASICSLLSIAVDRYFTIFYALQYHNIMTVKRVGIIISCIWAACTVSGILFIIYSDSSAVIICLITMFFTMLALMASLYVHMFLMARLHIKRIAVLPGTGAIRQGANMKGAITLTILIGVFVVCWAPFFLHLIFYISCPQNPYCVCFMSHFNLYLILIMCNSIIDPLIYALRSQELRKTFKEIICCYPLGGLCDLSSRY
Chain of Nuclear receptor subfamily 5 group A member 2 (O00482 whole entry): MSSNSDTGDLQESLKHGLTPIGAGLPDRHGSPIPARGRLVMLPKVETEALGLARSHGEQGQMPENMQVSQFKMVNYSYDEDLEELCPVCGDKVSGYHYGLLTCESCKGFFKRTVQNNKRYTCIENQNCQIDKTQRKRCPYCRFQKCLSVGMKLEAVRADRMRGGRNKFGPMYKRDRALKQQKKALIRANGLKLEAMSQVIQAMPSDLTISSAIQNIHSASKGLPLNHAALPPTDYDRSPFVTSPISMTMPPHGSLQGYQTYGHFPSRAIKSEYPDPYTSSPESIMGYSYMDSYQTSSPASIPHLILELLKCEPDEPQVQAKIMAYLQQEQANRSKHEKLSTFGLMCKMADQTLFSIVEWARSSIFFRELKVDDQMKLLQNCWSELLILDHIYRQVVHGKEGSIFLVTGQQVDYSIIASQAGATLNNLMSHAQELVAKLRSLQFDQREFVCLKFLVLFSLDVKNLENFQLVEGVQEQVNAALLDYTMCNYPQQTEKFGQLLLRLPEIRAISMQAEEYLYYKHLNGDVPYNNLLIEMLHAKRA
Chain of Steroidogenic factor 1 (Q13285 whole entry): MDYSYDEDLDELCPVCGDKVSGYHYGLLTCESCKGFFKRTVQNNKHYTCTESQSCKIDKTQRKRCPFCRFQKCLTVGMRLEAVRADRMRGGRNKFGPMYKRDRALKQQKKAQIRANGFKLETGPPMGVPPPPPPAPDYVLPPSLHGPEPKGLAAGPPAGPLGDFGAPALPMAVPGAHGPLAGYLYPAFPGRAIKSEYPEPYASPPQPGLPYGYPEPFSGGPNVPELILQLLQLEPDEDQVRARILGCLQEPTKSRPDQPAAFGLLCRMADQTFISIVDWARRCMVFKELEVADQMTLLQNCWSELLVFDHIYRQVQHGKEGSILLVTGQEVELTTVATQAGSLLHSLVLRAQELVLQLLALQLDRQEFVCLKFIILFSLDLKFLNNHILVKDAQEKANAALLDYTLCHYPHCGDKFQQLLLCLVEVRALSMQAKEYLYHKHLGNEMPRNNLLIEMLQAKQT

Structure (SMILES): O=c1oc2ccccc2cc1-c1nc2c(s1)CCCC2
IC50 [1]: > 67.5 µM (inactive)
IC50 [2]: > 0.278 µM (active)

IC50 [3]: > 73.5 µM (inactive)
Structure (SMILES): CCCCc1nnc(NC(=O)c2ccc(OCc3c(C)noc3C)cc2)s1

IC50 [4]: 8.62 µM (active)
IC50 [3]: 16.7 µM (inactive)
Structure (SMILES): OC[C@@H]1CN(Cc2ccc(-c3ccccc3)cc2)C[C@H](n2cnc3c(NC4CCC4)ncnc32)O1

Structure (SMILES): CC(=O)Nc1cc(-c2cccnc2)cn2c(-c3ccc(F)cc3)cnc12
IC50 [5]: 4.56 µM (active)
EC50 [6]: > 89.2 µM (inactive)
IC50 [7]: 22.3 µM (inactive)
IC50 [8]: 35.9 µM (inactive)

Structure (SMILES): C[C@H]([C@@H](O)[C@@H](O)[C@@H](C)C(C)(C)C)[C@H]1CC[C@H]2[C@@H]3CC[C@H]4C[C@H](OS(=O)(=O)O)[C@@H](OS(=O)(=O)O)C[C@]4(C)[C@H]3CC[C@]12C
IC50 [9]: 25.5 µM (inactive)
IC50 [10]: 22.5 µM (inactive)
IC50 [11]: 16.3 µM (active)
IC50 [12]: 11 µM (active)

— ChEMBL document CHEMBL1201862, “PubChem BioAssay data set” (2004)
